In patent US20020026051A1, “Dithiepino [6,5-b]pyridines, and related compositions and methods” (priority 1999, published 2002):

Experiments:
[1] = biological target: T1, calcium channel (Oryctolagus cuniculus, UniProt P15381); experiment: Assay for Inhibition of Nitrendipine Binding (3H-nitrendipine, heart membranes); details: 3H-nitrendipine displacement, rabbit heart membranes; Tables 1-5
T1 construct: from tissue; host or cells: rabbit heart membrane preparation
Outline: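 Rabbit heart membranes incubated with 3H-nitrendipine (0.05-0.50 nM) and test compound in 0.05M Hepes pH 7.4 for 90 minutes at 4° C, then filtered and scintillation counted.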

[2] = system: trachealis muscle tissue; experiment: Test for Inhibition of Calcium-Dependent Smooth Muscle Contraction (trachea); type: cell-based; details: Canis lupus familiaris; dog tracheal rings, 50 mM KCl contraction
Method: The trachea and the aorta from dogs sacrificed by excess KCl injection are stored overnight at 4° C. in oxygenated Krebs-Henseleit buffer. Tracheal rings, one cartilage segment wide (5-10 mm), are cut starting from the bronchial end. Rings of aorta tissue of the same width are also prepared. After cutting the cartilage, the trachealis muscle tissue and the aorta tissue are suspended in oxygenated Krebs-Henseleit buffer at 37° C. in a 25 ml tissue bath. After a 60-minute equilibration period, the tissues are challenged with 10 μM carbachol. After 5 minutes, the tissues are rinsed and allowed to rest 50 minutes. The tissues are then challenged with 50 mM KCl and, after 30 minutes, the contractions are quantitated. The tissues are then rinsed and re-equilibrated for 50 minutes. Test compounds are then added for 10 minutes, and the tissue is rechallenged with 50 mM KCl. After 30 minutes, the contraction is recorded. A percent inhibition of smooth muscle contraction can then be calculated.

T1 sequence (P15381 whole entry, other chains not shown): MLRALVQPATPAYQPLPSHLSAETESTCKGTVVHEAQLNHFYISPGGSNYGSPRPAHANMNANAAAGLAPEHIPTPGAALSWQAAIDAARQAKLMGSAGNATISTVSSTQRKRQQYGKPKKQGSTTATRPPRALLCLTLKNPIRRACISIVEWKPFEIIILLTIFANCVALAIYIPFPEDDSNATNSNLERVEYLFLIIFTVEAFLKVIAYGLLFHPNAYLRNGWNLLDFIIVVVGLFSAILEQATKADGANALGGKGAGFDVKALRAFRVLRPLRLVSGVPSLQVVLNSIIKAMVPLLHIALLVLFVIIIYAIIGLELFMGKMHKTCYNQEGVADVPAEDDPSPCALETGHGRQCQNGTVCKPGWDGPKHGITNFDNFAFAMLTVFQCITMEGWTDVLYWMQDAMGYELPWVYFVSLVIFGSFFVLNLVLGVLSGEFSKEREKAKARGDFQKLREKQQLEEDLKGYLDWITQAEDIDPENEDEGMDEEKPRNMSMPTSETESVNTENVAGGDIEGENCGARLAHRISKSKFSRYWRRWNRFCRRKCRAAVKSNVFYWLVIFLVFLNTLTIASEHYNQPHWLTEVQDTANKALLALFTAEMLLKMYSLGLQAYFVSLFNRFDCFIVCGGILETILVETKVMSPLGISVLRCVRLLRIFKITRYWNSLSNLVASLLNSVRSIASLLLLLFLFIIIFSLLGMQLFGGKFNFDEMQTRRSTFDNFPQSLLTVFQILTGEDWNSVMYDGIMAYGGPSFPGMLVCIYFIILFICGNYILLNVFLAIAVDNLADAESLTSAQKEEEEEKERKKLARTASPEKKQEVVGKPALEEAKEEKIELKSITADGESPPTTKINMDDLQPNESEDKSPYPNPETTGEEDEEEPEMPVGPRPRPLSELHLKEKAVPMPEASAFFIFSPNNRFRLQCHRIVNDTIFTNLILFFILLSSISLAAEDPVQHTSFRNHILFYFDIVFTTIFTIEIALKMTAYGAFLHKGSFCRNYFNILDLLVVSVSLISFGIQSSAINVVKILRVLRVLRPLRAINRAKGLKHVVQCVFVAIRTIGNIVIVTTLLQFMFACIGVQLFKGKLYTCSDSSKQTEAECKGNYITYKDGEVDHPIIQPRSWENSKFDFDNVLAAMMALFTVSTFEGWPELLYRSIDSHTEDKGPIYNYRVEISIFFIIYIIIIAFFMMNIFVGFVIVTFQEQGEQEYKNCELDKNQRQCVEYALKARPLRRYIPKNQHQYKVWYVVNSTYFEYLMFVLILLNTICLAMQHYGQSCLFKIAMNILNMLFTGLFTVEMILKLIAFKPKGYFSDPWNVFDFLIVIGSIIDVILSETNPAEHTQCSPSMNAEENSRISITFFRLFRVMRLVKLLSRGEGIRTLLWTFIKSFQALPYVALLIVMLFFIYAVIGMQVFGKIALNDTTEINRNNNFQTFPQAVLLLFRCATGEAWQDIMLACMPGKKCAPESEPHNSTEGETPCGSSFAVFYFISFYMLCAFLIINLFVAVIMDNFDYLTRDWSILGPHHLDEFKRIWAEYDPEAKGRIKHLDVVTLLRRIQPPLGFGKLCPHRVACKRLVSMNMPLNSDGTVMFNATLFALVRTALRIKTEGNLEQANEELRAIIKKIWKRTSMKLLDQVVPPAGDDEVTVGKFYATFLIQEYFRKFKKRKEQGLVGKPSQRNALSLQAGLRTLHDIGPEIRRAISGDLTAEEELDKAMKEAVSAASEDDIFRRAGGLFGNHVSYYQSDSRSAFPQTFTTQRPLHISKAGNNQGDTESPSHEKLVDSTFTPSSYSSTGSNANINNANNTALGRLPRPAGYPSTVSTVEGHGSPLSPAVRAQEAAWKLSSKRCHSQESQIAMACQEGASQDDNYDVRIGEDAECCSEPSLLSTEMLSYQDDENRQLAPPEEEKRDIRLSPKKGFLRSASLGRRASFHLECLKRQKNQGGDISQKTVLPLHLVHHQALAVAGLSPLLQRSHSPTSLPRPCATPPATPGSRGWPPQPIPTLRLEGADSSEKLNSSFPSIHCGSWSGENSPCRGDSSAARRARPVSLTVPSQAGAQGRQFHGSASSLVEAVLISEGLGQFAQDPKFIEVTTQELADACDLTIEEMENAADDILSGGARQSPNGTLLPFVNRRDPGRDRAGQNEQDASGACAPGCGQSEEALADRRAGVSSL
T1 sequence (P13806 27-960 partner limits assumed, other chains not shown): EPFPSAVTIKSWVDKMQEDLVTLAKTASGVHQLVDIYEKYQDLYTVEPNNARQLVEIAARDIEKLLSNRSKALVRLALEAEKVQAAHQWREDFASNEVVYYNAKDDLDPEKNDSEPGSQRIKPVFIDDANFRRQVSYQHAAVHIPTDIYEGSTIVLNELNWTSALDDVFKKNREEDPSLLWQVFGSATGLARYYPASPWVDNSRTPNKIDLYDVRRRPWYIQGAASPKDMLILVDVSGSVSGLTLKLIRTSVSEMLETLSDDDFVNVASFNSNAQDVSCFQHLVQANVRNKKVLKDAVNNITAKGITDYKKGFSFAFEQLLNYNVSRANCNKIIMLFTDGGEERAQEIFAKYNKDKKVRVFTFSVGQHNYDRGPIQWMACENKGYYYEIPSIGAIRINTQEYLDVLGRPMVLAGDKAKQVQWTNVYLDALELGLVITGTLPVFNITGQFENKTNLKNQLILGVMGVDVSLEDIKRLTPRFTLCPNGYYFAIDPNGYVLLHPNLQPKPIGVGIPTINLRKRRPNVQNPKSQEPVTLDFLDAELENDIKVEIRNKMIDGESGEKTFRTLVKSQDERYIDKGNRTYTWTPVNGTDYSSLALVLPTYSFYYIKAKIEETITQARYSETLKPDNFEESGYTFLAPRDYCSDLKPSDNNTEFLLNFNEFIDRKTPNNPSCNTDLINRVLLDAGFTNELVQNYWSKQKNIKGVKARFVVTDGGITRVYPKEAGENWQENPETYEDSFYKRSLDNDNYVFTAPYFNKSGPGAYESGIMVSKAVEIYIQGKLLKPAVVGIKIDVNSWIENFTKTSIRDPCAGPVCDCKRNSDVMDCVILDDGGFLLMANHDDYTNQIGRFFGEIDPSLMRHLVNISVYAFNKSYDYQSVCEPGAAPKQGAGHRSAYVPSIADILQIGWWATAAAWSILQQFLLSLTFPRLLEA
T1 sequence (P13806 961-1106 partner limits assumed, other chains not shown): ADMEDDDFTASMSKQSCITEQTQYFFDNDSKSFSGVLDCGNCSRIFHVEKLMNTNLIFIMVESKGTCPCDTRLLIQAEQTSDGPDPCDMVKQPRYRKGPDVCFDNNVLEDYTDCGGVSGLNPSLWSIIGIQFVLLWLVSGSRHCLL

Q: Which results are given for `CC1=C(C(=O)OCCN(C)Cc2ccccc2)C(c2c(F)c(F)c(F)c(F)c2F)C2=C(CS(=O)(=O)CCCS2(=O)=O)N1` (centres unmarked) [Compound 27, 2H,6H-1,5-Dithiocino[3,2-b]pyridine-9-carboxylic acid, 3,4,7,10-tetrahydro-8-methyl-10-(pentafluorophenyl)-2-[methyl(phenylmethyl)amino]ethyl ester 1,1,5,5-tetraoxide]?
A: IC50 [1]: 0.049 µM; IC50 [2]: 6.2 µM
